Experimental data taken from patent US9018175B2 (Takeda GmbH, priority 2009, dated 2015).

Key:
PDE4B1 = target: T1, PDE4B1 (Homo sapiens, UniProt Q07343); assay: Inhibition of PDE4B1 activity (SPA, [3H]cAMP); format: biochemical; conditions: recombinant PDE4B1 expressed in SF21 cells; 0.5 pM [sic] cAMP; values given as bins; read-out: PDE4B1 inhibitory values measured as −logIC50 (converted)
T1 construct: made in house; host or cells: SF21 insect cells (baculovirus; pCR-Bac vector)
Procedure, shortened: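 Recombinant human PDE4B1 (Sf21 cell 1000 g supernatant) in 20 mM Tris pH 7.4, 0.1 mg/ml BSA, 5 mM Mg2+, […] with [3H]cAMP tracer, enzyme giving 10-20% conversion. After 5 min preincubation at 37 °C, 15 min reaction, stopped by SPA beads with IBMX; IC50 by non-linear regression.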

human PDE5 = target: T2, human PDE5 (Homo sapiens, UniProt O76074); assay: Inhibition of PDE5 activity (SPA, [3H]cGMP, platelet lysate); format: biochemical; conditions: PDE5 from human platelet lysate; values given as bins; read-out: PDE5A inhibitory values measured as −logIC50 (converted)
T2 construct: from tissue; host or cells: human platelets from fresh donor blood (10,000 g supernatant of sonicated platelets)
Procedure, shortened: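 Human platelet lysate served as PDE5 source, with 1 μM motapizone and 10 nM PDE2 inhibitor present; […] plus [3H]cGMP tracer, pH 7.4, 5 mM Mg2+, 10-20% substrate turnover. After 5 min preincubation, 15 min at 37 °C, stopped with SPA beads and IBMX; IC50 by non-linear regression.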

T1 sequence (Q07343 whole entry): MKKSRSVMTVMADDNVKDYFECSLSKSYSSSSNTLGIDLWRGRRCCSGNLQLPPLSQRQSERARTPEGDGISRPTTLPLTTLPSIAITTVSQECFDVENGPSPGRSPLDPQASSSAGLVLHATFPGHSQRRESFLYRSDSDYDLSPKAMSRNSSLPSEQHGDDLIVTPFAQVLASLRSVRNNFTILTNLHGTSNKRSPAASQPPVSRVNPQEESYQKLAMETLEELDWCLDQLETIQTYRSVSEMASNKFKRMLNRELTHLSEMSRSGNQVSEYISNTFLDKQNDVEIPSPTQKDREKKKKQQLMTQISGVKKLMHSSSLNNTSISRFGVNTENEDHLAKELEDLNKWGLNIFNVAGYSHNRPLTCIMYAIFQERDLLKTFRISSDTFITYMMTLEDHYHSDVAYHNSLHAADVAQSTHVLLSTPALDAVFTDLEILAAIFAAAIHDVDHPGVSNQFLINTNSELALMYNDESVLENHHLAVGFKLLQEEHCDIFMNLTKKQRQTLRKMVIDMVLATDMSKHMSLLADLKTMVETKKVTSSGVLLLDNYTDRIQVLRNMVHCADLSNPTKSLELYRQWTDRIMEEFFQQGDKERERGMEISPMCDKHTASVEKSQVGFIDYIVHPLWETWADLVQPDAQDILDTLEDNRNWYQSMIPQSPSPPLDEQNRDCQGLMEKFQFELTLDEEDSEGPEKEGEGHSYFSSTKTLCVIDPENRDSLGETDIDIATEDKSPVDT

SMILES | IC50 (PDE4B1) [nM] | IC50 (human PDE5) [nM]
CCOc1cc2c(cc1OC)C(c1ccc(C(=O)N3CCC(n4c(=O)c5sc(-c6ccccc6)cc5n(Cc5csc(C)n5)c4=O)CC3)cc1)=N[C@@H]1CCSC[C@H]21 [Example 10, 3-[1-({4-[(4aR,10bR)-9-ethoxy-8-methoxy-3,4,4a,10b-tetrahydro-1H-thiopyrano[4,3-c]isoquinolin-6-yl]phenyl}carbonyl)piperidin-4-yl]-1-[(2-methyl-1,3-thiazol-4-yl)methyl]-6-phenylthieno[3,2-d]pyrimidine-2,4(1H,3H)-dione] | 1 to 10 | > 100
CCOc1cc2c(cc1OC)C(c1ccc(C(=O)N3CCC(n4c(=O)c5sc(-c6ccccc6)cc5n(Cc5noc(C)n5)c4=O)CC3)cc1)=N[C@@H]1CCSC[C@H]21 [Example 2, 3-[1-({4-[(4aR,10bR)-9-ethoxy-8-methoxy-3,4,4a,10b-tetrahydro-1H-thiopyrano[4,3-c]isoquinolin-6-yl]phenyl}carbonyl)piperidin-4-yl]-1-[(5-methyl-1,2,4-oxadiazol-3-yl)methyl]-6-phenylthieno[3,2-d]pyrimidine-2,4(1H,3H)-dione] | 1 to 10 | < 10
CCOc1cc2c(cc1OC)C(c1ccc(C(=O)N3CCC(n4c(=O)c5sc(-c6ccccc6)cc5n(Cc5cn(CC)nn5)c4=O)CC3)cc1)=N[C@@H]1CCSC[C@H]21 [Example 23, 3-[1-({4-[(4aR,10bR)-9-ethoxy-8-methoxy-3,4,4a,10b-tetrahydro-1H-thiopyrano[4,3-c]isoquinolin-6-yl]phenyl}carbonyl)piperidin-4-yl]-1-[(1-ethyl-1H-1,2,3-triazol-4-yl)methyl]-6-phenylthieno[3,2-d]pyrimidine-2,4(1H,3H)-dione] | 1 to 10 | > 100
CCOc1cc2c(cc1OC)C(c1cccc(C(=O)N3CCC(n4c(=O)c5sc(-c6ccccc6F)cc5n(Cc5nnn(CC)n5)c4=O)CC3)c1)=N[C@@H]1CCSC[C@H]21 [Example 39] | 1 to 10 | < 10
CCOc1cc2c(cc1OC)C(c1ccc(C(=O)N3CCC(n4c(=O)c5sc(-c6cc(F)ccc6OC)cc5n(Cc5nnn(CC)n5)c4=O)CC3)cc1)=N[C@@H]1CCSC[C@H]21 [Example 34, 3-[1-({4-[(4aR,10bR)-9-ethoxy-8-methoxy-3,4,4a,10b-tetrahydro-1H-thiopyrano[4,3-c]isoquinolin-6-yl]phenyl}carbonyl)piperidin-4-yl]-1-[(2-ethyl-2H-tetrazol-5-yl)methyl]-6-(5-fluoro-2-methoxyphenyl)thieno[3,2-d]pyrimidine-2,4(1H,3H)-dione] | > 10 | 10 to 100
CCOc1cc2c(cc1OC)C(c1ccc(C(=O)N3CCC(n4c(=O)c5sc(-c6ccccc6F)cc5n(Cc5nnn(CC)n5)c4=O)CC3)cc1)=N[C@@H]1CCSC[C@H]21 [Example 38, 3-[1-({4-[(4aR,10bR)-9-ethoxy-8-methoxy-3,4,4a,10b-tetrahydro-1H-thiopyrano[4,3-c]isoquinolin-6-yl]phenyl}carbonyl)piperidin-4-yl]-1-[(2-ethyl-2H-tetrazol-5-yl)methyl]-6-(2-fluorophenyl)thieno[3,2-d]pyrimidine-2,4(1H,3H)-dione] | > 10 | < 10
CCOc1cc2c(cc1OC)C(c1ccc(C(=O)N3CCC(n4c(=O)c5sc(-c6ccccc6)cc5n(Cc5nnnn5COC)c4=O)CC3)cc1)=N[C@@H]1CCSC[C@H]21 [Example 29, 3-[1-({4-[(4aR,10bR)-9-ethoxy-8-methoxy-3,4,4a,10b-tetrahydro-1H-thiopyrano[4,3-c]isoquinolin-6-yl]phenyl}carbonyl)piperidin-4-yl]-1-{[1-(methoxymethyl)-1H-tetrazol-5-yl]methyl}-6-phenylthieno[3,2-d]pyrimidine-2,4(1H,3H)-dione] | < 1 | < 10
CCOc1cc2c(cc1OC)C(c1cccc(C(=O)N3CCC(n4c(=O)c5sc(-c6cc(OC)ccc6OC)cc5n(Cc5nnn(CC)n5)c4=O)CC3)c1)=N[C@@H]1CCSC[C@H]21 [Example 37, 6-(2,5-dimethoxyphenyl)-3-[1-({3-[(4aR,10bR)-9-ethoxy-8-methoxy-3,4,4a,10b-tetrahydro-1H-thiopyrano[4,3-c]isoquinolin-6-yl]phenyl}carbonyl)piperidin-4-yl]-1-[(2-ethyl-2H-tetrazol-5-yl)methyl]thieno[3,2-d]pyrimidine-2,4(1H,3H)-dione] | > 10 | < 10
CCOc1cc2c(cc1OC)C(c1ccc(C(=O)N3CCC(n4c(=O)c5sc(-c6ccccc6)cc5n(Cc5nnn(CC)n5)c4=O)CC3)cc1)=NC1CC[S+]([O-])CC21 (single isomer, unassigned) [Example 24] | > 10 | < 10
CCOc1cc2c(cc1OC)C(c1ccc(C(=O)N3CCC(n4c(=O)c5sc(-c6ccccc6)cc5n(Cc5cc(C)on5)c4=O)CC3)cc1)=N[C@@H]1CCSC[C@H]21 [Example 6, 3-[1-({4-[(4aR,10bR)-9-ethoxy-8-methoxy-3,4,4a,10b-tetrahydro-1H-thiopyrano[4,3-c]isoquinolin-6-yl]phenyl}carbonyl)piperidin-4-yl]-1-[(5-methylisoxazol-3-yl)methyl]-6-phenylthieno[3,2-d]pyrimidine-2,4(1H,3H)-dione] | 1 to 10 | 10 to 100
CCOc1cc2c(cc1OC)C(c1ccc(C(=O)N3CCC(n4c(=O)c5sc(-c6ccccc6)cc5n(Cc5nc(COC)no5)c4=O)CC3)cc1)=N[C@@H]1CCSC[C@H]21 [Example 15, 3-(1-{4-[(4aR,10bR)-9-ethoxy-8-methoxy-3,4,4a,10b-tetrahydro-1H-thiopyrano[4,3-c]isoquinolin-6-yl]benzoyl}piperidin-4-yl)-1-{[3-(methoxymethyl)-1,2,4-oxadiazol-5-yl]methyl}-6-phenylthieno[3,2-d]pyrimidine-2,4(1H,3H)-dione] | 1 to 10 | < 10

Other lines, results leading:

IC50 (PDE4B1) [nM] | IC50 (human PDE5) [nM] | SMILES
1 to 10 | < 10 | CCOc1cc2c(cc1OC)C(c1ccc(C(=O)N3CCC(n4c(=O)c5sc(-c6ccccc6F)cc5n(Cc5nc(CC)no5)c4=O)CC3)cc1)=N[C@@H]1CCSC[C@H]21 [Example 48, 3-[1-({4-[(4aR,10bR)-9-ethoxy-8-methoxy-3,4,4a,10b-tetrahydro-1H-thiopyrano[4,3-c]isoquinolin-6-yl]phenyl}carbonyl)piperidin-4-yl]-1-[(3-ethyl-1,2,4-oxadiazol-5-yl)methyl]-6-(2-fluorophenyl)thieno[3,2-d]pyrimidine-2,4(1H,3H)-dione]
1 to 10 | > 100 | CCOc1cc2c(cc1OC)C(c1ccc(C(=O)N3CCC(n4c(=O)c5sc(-c6ccccc6)cc5n(Cc5sccc5C)c4=O)CC3)cc1)=N[C@@H]1CCSC[C@H]21 [Example 56, 3-[1-({4-[(4aR,10bR)-9-ethoxy-8-methoxy-3,4,4a,10b-tetrahydro-1H-thiopyrano[4,3-c]isoquinolin-6-yl]phenyl}carbonyl)piperidin-4-yl]-1-[(3-methylthiophen-2-yl)methyl]-6-phenylthieno[3,2-d]pyrimidine-2,4(1H,3H)-dione]
< 1 | > 100 | CCOc1cc2c(cc1OC)C(c1ccc(C(=O)N3CCC(n4c(=O)c5sc(-c6ccccc6)cc5n(Cc5ocnc5C)c4=O)CC3)cc1)=N[C@@H]1CCSC[C@H]21 [Example 54, 3-[1-({4-[(4aR,10bR)-9-ethoxy-8-methoxy-3,4,4a,10b-tetrahydro-1H-thiopyrano[4,3-c]isoquinolin-6-yl]phenyl}carbonyl)piperidin-4-yl]-1-[(4-methyl-1,3-oxazol-5-yl)methyl]-6-phenylthieno[3,2-d]pyrimidine-2,4(1H,3H)-dione]
> 10 | < 10 | CCn1nnc(Cn2c(=O)n(C3CCN(C(=O)c4ccc(C5=N[C@@H]6CCSC[C@@H]6c6cc(OC)c(OC)cc65)cc4)CC3)c(=O)c3sc(-c4ccccc4)cc32)n1 [Example 59, 3-[1-({4-[(4aR,10bR)-8,9-dimethoxy-3,4,4a,10b-tetrahydro-1H-thiopyrano[4,3-c]isoquinolin-6-yl]phenyl}carbonyl)piperidin-4-yl]-1-[(2-ethyl-2H-tetrazol-5-yl)methyl]-6-phenylthieno[3,2-d]pyrimidine-2,4(1H,3H)-dione]
1 to 10 | < 10 | CCOc1cc2c(cc1OC)C(c1ccc(C(=O)N3CCC(n4c(=O)c5sc(-c6ccc(F)cc6OC)cc5n(Cc5nc(COC)no5)c4=O)CC3)cc1)=N[C@@H]1CCSC[C@H]21 [Example 44, 3-[1-({4-[(4aR,10bR)-9-ethoxy-8-methoxy-3,4,4a,10b-tetrahydro-1H-thiopyrano[4,3-c]isoquinolin-6-yl]phenyl}carbonyl)piperidin-4-yl]-6-(4-fluoro-2-methoxyphenyl)-1-{[3-(methoxymethyl)-1,2,4-oxadiazol-5-yl]methyl}thieno[3,2-d]pyrimidine-2,4(1H,3H)-dione]
> 10 | 10 to 100 | CCOc1cc2c(cc1OC)C(c1ccc(C(=O)N3CCC(n4c(=O)c5sc(-c6cccc(F)c6F)cc5n(Cc5nnn(CC)n5)c4=O)CC3)cc1)=N[C@@H]1CCSC[C@H]21 [Example 42, 6-(2,3-difluorophenyl)-3-[1-({4-[(4aR,10bR)-9-ethoxy-8-methoxy-3,4,4a,10b-tetrahydro-1H-thiopyrano[4,3-c]isoquinolin-6-yl]phenyl}carbonyl)piperidin-4-yl]-1-[(2-ethyl-2H-tetrazol-5-yl)methyl]thieno[3,2-d]pyrimidine-2,4(1H,3H)-dione]
